Laboratory results from patent publication US20120328605A1, “COMPOSITIONS AND USES” (priority 2010, published 2012).
“Also recorded” adds a separate entry of the source.

Columns and labels:
[1] = system: CD11b+ monocytes; experiment: In vivo uptake assay of Aβ42 after immunization or passive immunotherapy; parameters: species or system C57BL/6 mice; antibody-mediated Aβ peripheral uptake: dose or concentration left out as unconfirmed; settings: FIG. 22
Procedure: Mice: C57BL/6 female mice were purchased from Charles River. […]
[…] At day 22, 5 μg per mouse of fluorescent HiLyte Fluor™ 488-labeled Amyloid β 1-42 (Anaspec, Fremont, Calif.) was injected in the tail vein. Preparation of cells: Peripheral blood was drawn from immunized C57BL/6 mice via cardiac puncture with lithium-heparin as anticoagulant, 2 hours after i.v. injection of the Aβ1-42 HiLyte Fluor™ 488 (Day 22). Plasma of pooled blood was decanted and saved for measurement of antibody titres by ELISA. Red blood cell lysis was performed twice with Ammonium Chloride-based Buffer (Sigma, Steinheim, Germany) and cells were counted with the EasyCount™ System (Immunicon).
FACS analysis: 500,000 cells were aliquoted in a 96-well plate, washed once, incubated for 10 min. on ice in the presence of Rat anti-Mouse CD16/CD32 (clone 2.4G2-BD Fc Block™) and further stained for 30 min. with a combination of the following directly conjugated antibodies at their pre-determined optimal concentration: PE-Hamster anti-Mouse CD3 (clone 145-2C11), Rat anti-Mouse CD45R/B220 (clone RA3-6B2), Rat anti-Mouse Ly-6G (clone 1A8), Mouse anti-Mouse NK1.1 (clone PK136), APC-conjugated Rat anti-Mouse CD11b (clone M1/70), PE-Cy7-conjugated Hamster anti-Mouse CD11c (clone HL3), (all from BD PharMingen). Cells were finally washed twice and fixed for 15 min. with a 2% paraformaldehyde solution in PBS. […]

[2] = system: Lineage-CD11b+ monocytes; experiment: Monocyte analysis and counting after adjuvant injection in mice; type: in vivo, C57BL/6 mice
Procedure: (§1) 24-Hours after injection of the TLR adjuvants, peripheral blood was drawn from C57BL/6 mice via cardiac puncture with lithium-heparin as anticoagulant. Red blood cell lysis was performed twice on pooled blood with Ammonium Chloride-based Buffer (Sigma, Steinheim, Germany) and cells were counted with the EasyCount™ System (Immunicon). […] Cells were finally washed three times and fixed for 15 min. with a 2% paraformaldehyde solution in PBS. Fluorescence minus one (FMO) controls were always included in the assays for fluorescent compensation setting. Samples were acquired on a flow cytometer (BD FACSCanto II) and data analyzed with the FACSDiva software (BD Biosciences). Monocytes were identified by their Side/Forward scatter properties and gated as CD3-/CD45R/B220-/Ly-6G-/NK1.1-(Lineage-)/CD11b+ cells. CD11b+ monocyte frequency was reported as a percentage of the total cells excluding debris.
as §1, with “24 hours” for “24-Hours”, “each immunomodulator,” for “the TLR adjuvants,”, “min” for “min.”, “monocytes” for “monocyte”

[3] = single i.m. injection, 24 hrs, FIG. 12

With `CCCCCCCCCCC[C@H](CC(=O)N[C@H]1[C@H](OC[C@H](NC(=O)C[C@@H](CCCCCCCCCCC)OCCCCCCCCCC)C(=O)O)O[C@H](CO)[C@@H](OP(=O)(O)O)[C@@H]1OC(=O)C[C@@H](CCCCCCCCCCC)OCCCCCCCCCC)OCCCCCCCCCC` [CRX601] the “antibody-mediated Aβ uptake, effect of CRX601 when combined with AS03 emulsion” value ([1]; CRX601 20 ug with AS03) was “partially quenched”, the “antibody-mediated Aβ peripheral uptake” value ([1]; single i.m. injection, 24 hrs, Aβ Fluor i.v., 2 hrs) was “highest Aβ uptake; also recorded: Dose-response observed” and the “circulating monocytes numbers following injection” value ([2]; i.m. or i.p. routes, doses of b403, FIG. 9) was “Upregulation of circulating monocytes numbers”. The “dose enough to trigger an increase of the monocyte count compared to PBS” value [2, 3] was 1 µg, the “dose of maximum response (monocyte count)” value [2, 3] was 10 µg and the “effect on monocyte count at 20 μg dose” value ([2]; single i.m. injection, FIG. 12) was “down modulated”.
